SMILES strings stand for the structures.

The inhibition is the change of the read-out against control, counted positive when it falls.

This assay addresses T1, B1R of the rat (Rattus norvegicus, UniProt P97583).
T1 construct: expressed in transfected cells; host or cells: CHO K1 cells (Chinese hamster ovary), stably transfected
T1 sequence (P97583 1-337): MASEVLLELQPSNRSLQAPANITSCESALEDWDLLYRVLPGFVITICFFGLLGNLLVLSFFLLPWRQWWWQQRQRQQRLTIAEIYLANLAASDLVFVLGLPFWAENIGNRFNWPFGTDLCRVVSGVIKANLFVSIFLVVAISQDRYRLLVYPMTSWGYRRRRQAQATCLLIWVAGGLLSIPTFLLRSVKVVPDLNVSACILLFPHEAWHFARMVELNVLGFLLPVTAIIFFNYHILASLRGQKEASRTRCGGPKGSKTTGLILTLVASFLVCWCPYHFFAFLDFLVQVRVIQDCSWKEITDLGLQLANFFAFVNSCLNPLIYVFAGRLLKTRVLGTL
Nature of the assay: FLIPR Ca2+ functional assay, B1R antagonism, rat B1R in CHO K1 cells. It counts as cell-based. The settings on record: test substance 10 μM; rB1R CHO K1 cells; agonist Des-Arg9 bradykinin at EC80; % of maximum achievable inhibition. The protocol:
The agonistic or antagonistic action of substances on the bradykinin 1 receptor (B1R) of the human and rat species can be quantified with ectopically expressing cell lines (CHO K1 cells) and with the aid of a Ca^2+-sensitive dye (Fluo-4) using a fluorescent imaging plate reader (FLIPR). The value in % activation is based on the Ca^2+ signal after addition of Lys-Des-Arg^9 bradykinin (0.5 nM) or Des-Arg^9 bradykinin (100 nM). Antagonists lead to a suppression of the Ca^2+ influx following administration of the agonist. The % inhibition in comparison with the maximum achievable inhibition is indicated.
1. Functional Investigation on the Bradykinin 1 Receptor (B1R) The agonistic or antagonistic action of substances can be determined on the bradykinin 1 receptor (B1R) of the human and rat species with the following assay. According to this assay, the Ca^2+ inflow through the channel is quantified with the aid of a Ca^2+-sensitive dye (Fluo-4 type, Molecular Probes Europe BV, Leiden, Netherlands) in a fluorescent imaging plate reader (FLIPR, Molecular Devices, Sunnyvale, USA). 2. Method: Chinese hamster ovary cells (CHO K1 cells) which are stably transfected with the human B1R gene (hB1R cells) or the B1R gene of the rat (rB1R cells) are used. For functional investigations these cells are plated-out onto black 96-well plates with a clear base (BD Biosciences, Heidelberg, Germany or Greiner, Frickenhausen, Germany) in a density of 20,000-35,000 cells/well. Overnight the cells are incubated at 37° C. and 5% CO2 in culture medium (hB1R cells: Ham's Nutrient Mixture F12, Gibco Invitrogen GmbH, Karlsruhe, Germany or DMEM, Sigma-Aldrich, Taufkirchen, Germany; rB1R cells: D-MEM/F12, Gibco Invitrogen, Karlsruhe, Germany) with 10 vol. % FBS (foetal bovine serum, Gibco Invitrogen GmbH, Karlsruhe, Germany or PAN Biotech GmbH, Aidenbach, Germany).
On the following day the cells are loaded with 2.13 μM Fluo-4 (Molecular Probes Europe BV, Leiden, Netherlands) in HBSS buffer (Hank's buffered saline solution, Gibco Invitrogen GmbH, Karlsruhe, Germany) with 2.5 mM probenecid (Sigma-Aldrich, Taufkirchen, Germany) and 10 mM HEPES (Sigma-Aldrich, Taufkirchen, Germany) for 60 min at 37° C. The plates are subsequently washed twice with HBSS buffer, and HBSS buffer which additionally contains 0.1% BSA (bovine serum albumin; Sigma-Aldrich, Taufkirchen, Germany), 5.6 mM glucose and 0.05% gelatine (Merck KGaA, Darmstadt, Germany) is added. After a further incubation of 20 minutes at RT, the plates are inserted into the FLIPR for Ca^2+ measurement. Alternatively they are washed with buffer A (15 mM HEPES, 80 mM NaCl, 5 mM KCl, 1.2 mM CaCl2, 0.7 mM MgSO4, 2 g/l glucose, 2.5 mM probenecid) and loaded with buffer A with added 2.5 μM Fluo-4 and 0.025% Pluronic F127 (Sigma-Aldrich, Taufkirchen, Germany). The cells are then washed twice with buffer A and incubated for 30 minutes with buffer A, which additionally contains 0.05% BSA and 0.05% gelatine, at RT and then used for Ca^2+ measurement in the FLIPR. The Ca^2+-dependent fluorescence is measured here before and after addition of substances (λex=488 nm, λem=540 nm). The quantification is performed by measuring the highest fluorescence intensity (FC, fluorescence counts) over time.
The FLIPR protocol comprises two additions of substance. Test substances (10 μM) are first pipetted onto the cells and the Ca^2+ inflow is compared with the control (hB1R: Lys-Des-Arg^9 bradykinin >=50 nM; rB1R: Des-Arg^9 bradykinin 10 μM). The value in % activation based on the Ca^2+ signal after addition of Lys-Des-Arg^9 bradykinin (>=50 nM) or Des-Arg^9 bradykinin (10 μM) is obtained therefrom. After incubation for 10-20 minutes, Lys-Des-Arg^9 bradykinin (hB1R) or Des-Arg^9 bradykinin (rB1R) is applied in the EC80 concentration and the inflow of Ca^2+ is likewise determined.
Antagonists lead to a suppression of the Ca^2+ inflow. The % inhibition in comparison with the maximum achievable inhibition is calculated. […]
As to `COc1ccc(CN2CCN(C(=O)CC3c4cccn4CCN3S(=O)(=O)c3ccccc3)CC2)cc1` (stereo not drawn) [Example 233, 2-[2-(Benzenesulfonyl)-1,2,3,4-tetrahydro-pyrrolo[1,2-a]pyrazin-1-yl]-1-[4-[(4-methoxyphenyl)-methyl]-piperazin-1-yl]-ethanone], the inhibition at 10 µM came out at 20.6%.

Turning to `CC1CCCC(C)N1CCCNC(=O)CC1c2cccn2CCN1S(=O)(=O)c1ccccc1` (stereo not drawn) [Example 169, 2-[2-(Benzenesulfonyl)-1,2,3,4-tetrahydro-pyrrolo[1,2-a]pyrazin-1-yl]-N-[3-(2,6-dimethyl-piperidin-1-yl)-propyl]-acetamide], the inhibition at 10 µM came to 7.57%.

On to `CC1CCCC(C)N1CCCNC(=O)CC1c2cccn2CCN1S(=O)(=O)c1cccc(C(F)(F)F)c1` (stereo not drawn) [Example 184, N-[3-(2,6-Dimethyl-piperidin-1-yl)-propyl]-2-[2-[[3-(trifluoromethyl)phenyl]sulfonyl]-1,2,3,4-tetrahydro-pyrrolo[1,2-a]pyrazin-1-yl]-acetamide], for which the inhibition at 10 µM amounted to 19.4%.

Consider `O=C(CC1c2cccn2CCN1S(=O)(=O)c1ccccc1)N1CCN(c2ncccn2)CC1` (stereo not drawn) [Example 179, 2-[2-(Benzenesulfonyl)-1,2,3,4-tetrahydro-pyrrolo[1,2-a]pyrazin-1-yl]-1-(4-pyrimidin-2-yl-piperazin-1-yl)-ethanone], for which the inhibition at 10 µM worked out at 20.8%.

With `O=C(CC1c2cccn2CCN1S(=O)(=O)c1ccccc1)N1CCN(c2ccc(Cl)c(Cl)c2)CC1` (stereo not drawn) [Example 231, 2-[2-(Benzenesulfonyl)-1,2,3,4-tetrahydro-pyrrolo[1,2-a]pyrazin-1-yl]-1-[4-(3,4-dichlorophenyl)-piperazin-1-yl]-ethanone], the inhibition at 10 µM was -0.67%.

Turning to `Cc1cccc(Cl)c1S(=O)(=O)N1CCn2cccc2C1CC(=O)N1CCC(CCN2CCCCC2)CC1` (stereo not drawn) [Example 165, 2-[2-[(2-Chloro-6-methyl-phenyl)sulfonyl]-1,2,3,4-tetrahydro-pyrrolo[1,2-a]pyrazin-1-yl]-1-[4-(2-piperidin-1-yl-ethyl)-piperidin-1-yl]-ethanone], the inhibition at 10 µM is 55.8%.

On to `Cc1cccc(Cl)c1S(=O)(=O)N1CCn2cccc2C1CC(=O)N1CCC[C@H]1CN1CCCC1` (stereo partly drawn) [Example 260, 2-[2-[(2-Chloro-6-methyl-phenyl)sulfonyl]-1,2,3,4-tetrahydro-pyrrolo[1,2-a]pyrazin-1-yl]-1-[(2S)-2-(pyrrolidin-1-yl-methyl)-pyrrolidin-1-yl]-ethanone], for which the inhibition at 10 µM was -11.4%.

Take `Cc1ccc2[nH]c(C3CCN(C(=O)CC4c5cccn5CCN4S(=O)(=O)c4ccccc4)CC3)nc2c1` (stereo not drawn) [Example 180, 2-[2-(Benzenesulfonyl)-1,2,3,4-tetrahydro-pyrrolo[1,2-a]pyrazin-1-yl]-1-[4-(5-methyl-1H-benzoimidazol-2-yl)-piperidin-1-yl]-ethanone]: the inhibition at 10 µM was determined as 32.9%.

As to `O=C(CC1c2cccn2CCN1S(=O)(=O)c1cccc(C(F)(F)F)c1)N1CCN(c2ccccn2)CC1` (stereo not drawn) [Example 190, 1-(4-Pyridin-2-yl-piperazin-1-yl)-2-[2-[[3-(trifluoromethyl)phenyl]sulfonyl]-1,2,3,4-tetrahydro-pyrrolo[1,2-a]pyrazin-1-yl]-ethanone], the inhibition at 10 µM turned out to be 20.4%.

In the case of `COc1cc(C)c(S(=O)(=O)N2CCn3cccc3C2CC(=O)N2CCC(c3nc4cc(C)ccc4[nH]3)CC2)c(C)c1` (stereo not drawn) [Example 148, 2-[2-[(4-Methoxy-2,6-dimethyl-phenyl)sulfonyl]-1,2,3,4-tetrahydro-pyrrolo[1,2-a]pyrazin-1-yl]-1-[4-(5-methyl-1H-benzoimidazol-2-yl)-piperidin-1-yl]-ethanone], the inhibition at 10 µM is 70.4%.

`O=C(CC1c2cccn2CCN1S(=O)(=O)c1cccc(C(F)(F)F)c1)N1CCC(N2CCCCC2)CC1` (stereo not drawn) [Example 188, 1-(4-Piperidin-1-yl-piperidin-1-yl)-2-[2-[[3-(trifluoromethyl)phenyl]sulfonyl]-1,2,3,4-tetrahydro-pyrrolo[1,2-a]pyrazin-1-yl]-ethanone]: the inhibition at 10 µM is -2.25%.

With `O=C(CC1c2cccn2CCN1S(=O)(=O)c1ccccc1)N1CCN(Cc2ccccc2F)CC1` (stereo not drawn) [Example 234, 2-[2-(Benzenesulfonyl)-1,2,3,4-tetrahydro-pyrrolo[1,2-a]pyrazin-1-yl]-1-[4-[(2-fluorophenyl)-methyl]-piperazin-1-yl]-ethanone], the inhibition at 10 µM was 17.3%.

Take `COc1cc(C)c(S(=O)(=O)N2CCn3cccc3C2CC(=O)N2CCN(Cc3c(C)cc(C)cc3C)CC2)c(C)c1` (stereo not drawn) [Example 239, 2-[2-[(4-Methoxy-2,6-dimethyl-phenyl)sulfonyl]-1,2,3,4-tetrahydro-pyrrolo[1,2-a]pyrazin-1-yl]-1-[4-[(2,4,6-trimethyl-phenyl)-methyl]-piperazin-1-yl]-ethanone]: the inhibition at 10 µM is -8.74%.

Turning to `COc1ccc(N2CCN(C(=O)CC3c4cccn4CCN3S(=O)(=O)c3ccc(C(F)(F)F)cc3Cl)CC2)cc1` (stereo not drawn) [Example 237, 2-[2-[[2-Chloro-4-(trifluoromethyl)-phenyl]sulfonyl]-1,2,3,4-tetrahydro-pyrrolo[1,2-a]pyrazin-1-yl]-1-[4-(4-methoxyphenyl)-piperazin-1-yl]-ethanone], the inhibition at 10 µM amounted to 9.45%.

Regarding `O=C(CC1c2cccn2CCN1S(=O)(=O)c1ccccc1)NCC1CCCN(Cc2ccccc2)C1` (stereo not drawn) [Example 235, 2-[2-(Benzenesulfonyl)-1,2,3,4-tetrahydro-pyrrolo[1,2-a]pyrazin-1-yl]-N-[(1-benzyl-piperidin-3-yl)-methyl]-acetamide], the inhibition at 10 µM is -14%.

In the case of `COc1cc(C)c(S(=O)(=O)N2CCn3cccc3C2CC(=O)NCCCN2CCOCC2)c(C)c1` (stereo not drawn) [Example 142, 2-[2-[(4-Methoxy-2,6-dimethyl-phenyl)sulfonyl]-1,2,3,4-tetrahydro-pyrrolo[1,2-a]pyrazin-1-yl]-N-(3-morpholin-4-yl-propyl)-acetamide], the inhibition at 10 µM was 37.9%.

As to `O=C(CC1c2cccn2CCN1S(=O)(=O)c1ccccc1)N1CCC[C@H]1CN1CCCC1` (stereo partly drawn) [Example 264, 2-[2-(Benzenesulfonyl)-1,2,3,4-tetrahydro-pyrrolo[1,2-a]pyrazin-1-yl]-1-[(2S)-2-(pyrrolidin-1-yl-methyl)-pyrrolidin-1-yl]-ethanone], the inhibition at 10 µM amounted to 1.78%.

On to `Cc1cccc(Cl)c1S(=O)(=O)N1CCn2cccc2C1CC(=O)NCCCN1CCOCC1` (stereo not drawn) [Example 154, 2-[2-[(2-Chloro-6-methyl-phenyl)sulfonyl]-1,2,3,4-tetrahydro-pyrrolo[1,2-a]pyrazin-1-yl]-N-(3-morpholin-4-yl-propyl)-acetamide], for which the inhibition at 10 µM came to 41.9%.
